Measured values: patent US20080015147A1, “Method for inhibiting neuronal cell death” (priority 2006, published 2008)

Experiments:
Assay type in all cases: cell-based, mouse
cleaved caspase 3 = test: Caspase 3 cleavage by immunoblot; details: 48 hr; any pH condition for TCAP-1
Protocol: Detection of caspase 3 cleavage was determined at 48 hrs. The samples at each pH and control (see above) were lysed using total protein isolation lysis buffer (described above). An aliquot of 25 μl of each sample was combined with 25 μl of 2×20% sodium dodecyl sulphate (SDS) sample buffer and loaded onto a 4-10% HCL-Tris pre cast polyacrylamide gel (BioRad, Mississauga). The gel was run at 200 v for 35 min and proteins were electrotransfered to a Hybond-C nitrocellulose membrane (Amersham, Baie d'Urfé) for 75 min at 100 v. After transfer, the membrane was washed with 10 ml of PBS with 0.05% Tween 20 (PBST) for 5 min at room temperature (RT) and the membrane was incubated in 10 ml of PBST-milk for one hour at RT followed by 3 times for 5 min washes with 10 ml of PBST. The membrane was then incubated with cleaved caspase 3 primary antibody (Cell Signaling Technology, Beverly) at a titre of 1:500 in 6 ml of PBST-milk with gentle agitation overnight at 4° C. The membranes were washed 3 times for 5 min with 10 ml of PBST followed by membrane incubation with anti-rabbit horseradish peroxidase (HRP)-conjugated secondary antibody (Amersham, Baie d'Urfé) at 1:3000 in 6 ml of PBST-milk with gentle agitation for 1 hr at RT. […]

caspase 8 = test: Caspase 8 colorimetric assay; details: pH 7.4; apoptotic control
Protocol: (§1) Caspase 8 and 3 colorimetric assays were performed on the N38 cells at all pH conditions. The assay was based on the detection of the chromophore pNA after cleavage from the labeled substrate IETD-pNA and DEVD-pNA for caspase 8 and 3, respectively. Comparison of the pNA absorbance from the suspected apoptotic sample was compared to the uninduced neutral pH sample. Caspase 8 and 3 were analysed using the Caspase-3 Colorimetric Activity Assay (Chemicon, Temecula USA) and Caspase-8 Colorimetric Activity Assay (Chemicon, Temecula USA). The cells from each pH treatment described previously at 24 and 48 hrs were removed using a cell scraper and centrifuged at 1500 rpm for 10 minutes. The cells were resuspended in 350 μl of chilled cell lysis buffer containing 500 μl PBS, 5 μl 1% Triton ×100 (Sigma, St. Louis), 25 μl proteinase inhibitor cocktail set III (VWR, Mississauga), 0.5 μM dithiothreitol (DTT) (Sigma, St. Louis) and 2.5 μl phenylmethylsulphonylfluoride (PMSF) diluted in 1 mL of methanol (EM Science, Gibbstown), then incubated on ice for 10 min and centrifuged for 5 minutes at 10,000 rpm. The supernatant, consisting of cytosolic extracts, was transferred to a new tube and a bicinchoninic acid (BCA) protein assay (Pierce, Rockford) was conducted to determine total protein concentration. The absorbance of each sample was measured on a SPECTRAmax Microplate spectrophotometer at 405 nm after an incubation period of 2 hours at 37° C. Changes in caspase 3 activity were determined by comparing the absorbance reading from the induced sample with the level of the uninduced control. Background readings from the buffer were subtracted from the reading of both the induced (pH 6.8, 8.0, 8.4) and uninduced (pH 7.4) samples before calculating changes in caspase 3 activity. The same was done for the detection of caspase 8. As a control, N38 cells were cultured with pH 7.4 DMEM and incubated for 4 days, apoptosis was then induced using 10 μM/ml etoposide and lysed according to the above protocol and used a control for all subsequent caspase 3 detection. All assays were performed with 4 replications.

caspase 3 = test: Caspase 3 colorimetric assay; details: pH 7.4; apoptotic control
Protocol: as §1

COc1cc([C@@H]2c3cc4c(cc3[C@@H](O[C@@H]3O[C@@H]5CO[C@@H](C)O[C@H]5[C@H](O)[C@H]3O)[C@H]3COC(=O)[C@H]23)OCO4)cc(OC)c1O [Etoposide, etoposide, reference compound] was tested, and the “caspase 3 cleavage product (17/19 kDa) on western blot” value (cleaved caspase 3) was “clearly visible”, the “increase in caspase 8 relative to vehicle-treated cells” value (caspase 8) was “greater than 3 fold” and the “increase in caspase-3 relative to vehicle-treated cells” value (caspase 3) was 3.5 fold.
